Results taken from ChEMBL document CHEMBL4118135, “Optimized allosteric inhibition of engineered protein tyrosine phosphatases with an expanded palette of biarsenical small molecules” (Bioorg Med Chem, 2018).
Residue numbers refer to the chain shown, from its start. The source made the active and inactive calls. The rule behind the calls is not given here.

How the values were obtained:
[1] = test system: Tyrosine-protein phosphatase non-receptor type 7 (Homo sapiens), P35236 [UNDEFINED MUTATION]; assay: Inhibition of allosterically sensitized mutant form of His6-tagged human wild-type HePTP catalytic domain at 1.92 uM using pNPP as substrate incubated for 90 mins by quenched phosphatase activity assay
[2] = target: Tyrosine-protein phosphatase non-receptor type 13 (Homo sapiens) (UniProt Q12923); assay: Inhibition of allosterically sensitized mutant form of His6-tagged human FAP1 catalytic domain at 500 nM using pNPP as substrate incubated for 90 mins by quenched phosphatase activity assay
[3] = target: T1, Tyrosine-protein phosphatase non-receptor type 11 (Homo sapiens) (UniProt Q06124); assay: Inhibition of allosterically sensitized mutant form of His6-tagged human SHP2 containing SHP1 and […] SH2 domain at 500 nM at 500 nM using pNPP as substrate incubated for 90 mins by quenched phosphatase activity assay
T1 sequence (whole entry): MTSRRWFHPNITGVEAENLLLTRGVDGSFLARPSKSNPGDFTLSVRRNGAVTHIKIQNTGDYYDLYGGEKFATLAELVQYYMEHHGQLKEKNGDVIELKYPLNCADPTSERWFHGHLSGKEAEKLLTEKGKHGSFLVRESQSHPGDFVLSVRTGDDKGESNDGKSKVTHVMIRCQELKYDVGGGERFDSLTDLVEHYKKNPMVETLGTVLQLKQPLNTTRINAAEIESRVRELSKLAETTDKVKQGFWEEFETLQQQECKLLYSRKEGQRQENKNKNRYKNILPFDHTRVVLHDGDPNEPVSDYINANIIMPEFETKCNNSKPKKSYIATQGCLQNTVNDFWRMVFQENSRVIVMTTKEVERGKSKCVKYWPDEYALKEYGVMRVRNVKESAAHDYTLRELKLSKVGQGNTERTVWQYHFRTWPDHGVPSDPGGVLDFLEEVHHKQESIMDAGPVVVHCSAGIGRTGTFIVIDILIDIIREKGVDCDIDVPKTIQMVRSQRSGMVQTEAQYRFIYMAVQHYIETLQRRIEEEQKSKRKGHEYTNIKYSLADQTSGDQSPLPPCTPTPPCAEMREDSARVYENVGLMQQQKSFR

[4] = target: T1, Tyrosine-protein phosphatase non-receptor type 11 (Homo sapiens); assay: Inhibition of allosterically sensitized mutant form of His6-tagged human SHP2 catalytic domain at 500 nM at 500 nM using pNPP as substrate incubated for 90 mins by quenched phosphatase activity assay
[5] = target: Tyrosine-protein phosphatase non-receptor type 6 (Homo sapiens) (UniProt P29350); assay: Inhibition of allosterically sensitized mutant form of His6-tagged human SHP1 catalytic domain at 500 nM using pNPP as substrate incubated for 90 mins by quenched phosphatase activity assay
[6] = test system: T2, Tyrosine-protein phosphatase non-receptor type 7 (Homo sapiens), P35236 [P171C,V205C]; assay: Inhibition of allosterically sensitized mutant form of His6-tagged human HePTP catalytic domain at 500 nM using pNPP as substrate incubated for 90 mins by quenched phosphatase activity assay
T2 sequence (whole entry): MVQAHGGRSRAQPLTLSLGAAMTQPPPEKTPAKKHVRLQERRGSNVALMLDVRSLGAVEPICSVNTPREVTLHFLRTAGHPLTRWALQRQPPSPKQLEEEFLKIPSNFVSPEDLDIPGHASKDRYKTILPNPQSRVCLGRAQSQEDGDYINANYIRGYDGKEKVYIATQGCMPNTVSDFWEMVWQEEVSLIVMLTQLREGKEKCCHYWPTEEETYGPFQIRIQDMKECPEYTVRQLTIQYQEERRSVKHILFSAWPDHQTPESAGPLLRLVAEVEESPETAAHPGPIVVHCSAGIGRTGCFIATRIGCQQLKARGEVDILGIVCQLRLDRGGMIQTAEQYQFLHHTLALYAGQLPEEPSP

[7] = species: Homo sapiens; assay: Inhibition of His6-tagged human wild-type PTP catalytic domain at 500 nM using pNPP as substrate incubated for 90 mins by quenched phosphatase activity assay
[8] = test system: T3, Tyrosine-protein phosphatase non-receptor type 1 (Homo sapiens), P18031 [P87C,A122C]; assay: Inhibition of allosterically sensitized His6-tagged human PTP1B catalytic domain P87C/A122C mutant at 250 nM using pNPP as substrate incubated for 90 mins by quenched phosphatase activity assay
T3 sequence (whole entry): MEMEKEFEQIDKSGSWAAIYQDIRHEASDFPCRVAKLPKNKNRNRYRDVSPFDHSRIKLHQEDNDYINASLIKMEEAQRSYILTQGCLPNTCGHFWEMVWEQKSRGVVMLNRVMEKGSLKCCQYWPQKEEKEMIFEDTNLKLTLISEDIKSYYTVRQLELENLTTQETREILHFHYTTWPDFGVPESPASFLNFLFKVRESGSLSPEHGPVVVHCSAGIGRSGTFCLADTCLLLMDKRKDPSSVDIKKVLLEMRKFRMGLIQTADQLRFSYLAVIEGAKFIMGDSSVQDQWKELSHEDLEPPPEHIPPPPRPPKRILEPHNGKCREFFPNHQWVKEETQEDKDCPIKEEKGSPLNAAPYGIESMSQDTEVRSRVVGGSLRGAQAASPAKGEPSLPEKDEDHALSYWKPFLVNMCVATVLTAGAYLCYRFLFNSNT

[9] = test system: T2, Tyrosine-protein phosphatase non-receptor type 7 (Homo sapiens), P35236 [P171C,V205C]; assay: Inhibition of allosterically sensitized mutant form of His6-tagged human HePTP catalytic domain using pNPP as substrate incubated for 90 mins by quenched phosphatase activity assay
[10] = test system: T2, Tyrosine-protein phosphatase non-receptor type 7 (Homo sapiens), P35236 [P171C,V205C]; assay: Inhibition of allosterically sensitized mutant form of His6-tagged human HePTP catalytic domain at 1 uM using pNPP as substrate measured up to 10 mins by quenched phosphatase activity assay
[11] = target: T4, Tyrosine-protein phosphatase non-receptor type 7 (Homo sapiens) (UniProt P35236); assay: Inhibition of His6-tagged human wild-type HePTP catalytic domain at 1 uM using pNPP as substrate incubated for 90 mins by quenched phosphatase activity assay
T4 sequence (whole entry): T2 sequence (whole entry) with C171P, C205V

Sequence of Tyrosine-protein phosphatase non-receptor type 7 (Homo sapiens), P35236 [UNDEFINED MUTATION] (P35236 whole entry, looked up, stated change not applied, the tested form may be a part): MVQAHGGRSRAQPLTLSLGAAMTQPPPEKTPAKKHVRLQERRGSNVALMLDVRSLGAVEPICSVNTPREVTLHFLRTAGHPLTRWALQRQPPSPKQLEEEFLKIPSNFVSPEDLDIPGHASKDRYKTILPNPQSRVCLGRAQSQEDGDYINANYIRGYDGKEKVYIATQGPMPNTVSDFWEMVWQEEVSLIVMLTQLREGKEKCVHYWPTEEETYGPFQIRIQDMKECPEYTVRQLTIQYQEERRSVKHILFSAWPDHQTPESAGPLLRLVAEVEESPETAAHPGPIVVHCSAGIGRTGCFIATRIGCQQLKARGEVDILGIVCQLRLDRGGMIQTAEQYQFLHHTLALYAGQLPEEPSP
Sequence of Tyrosine-protein phosphatase non-receptor type 6 (Homo sapiens) (P29350 whole entry, the tested form may be a part): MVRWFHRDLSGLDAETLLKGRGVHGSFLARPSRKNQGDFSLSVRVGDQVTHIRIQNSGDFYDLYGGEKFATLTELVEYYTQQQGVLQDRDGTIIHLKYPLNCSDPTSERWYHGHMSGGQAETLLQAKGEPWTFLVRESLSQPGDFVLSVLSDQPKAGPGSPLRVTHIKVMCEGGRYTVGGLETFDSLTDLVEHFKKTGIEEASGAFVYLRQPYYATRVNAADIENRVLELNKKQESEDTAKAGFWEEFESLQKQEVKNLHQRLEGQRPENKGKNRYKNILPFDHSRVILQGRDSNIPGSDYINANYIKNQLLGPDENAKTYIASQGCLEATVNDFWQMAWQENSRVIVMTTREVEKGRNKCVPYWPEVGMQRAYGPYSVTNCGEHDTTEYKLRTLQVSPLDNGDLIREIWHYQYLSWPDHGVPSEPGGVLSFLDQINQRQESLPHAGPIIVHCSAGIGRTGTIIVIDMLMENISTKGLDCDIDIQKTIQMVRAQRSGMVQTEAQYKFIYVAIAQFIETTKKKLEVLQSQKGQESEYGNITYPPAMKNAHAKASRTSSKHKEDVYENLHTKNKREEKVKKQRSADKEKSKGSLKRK
Sequence of Tyrosine-protein phosphatase non-receptor type 13 (Homo sapiens) (Q12923 whole entry, the tested form may be a part): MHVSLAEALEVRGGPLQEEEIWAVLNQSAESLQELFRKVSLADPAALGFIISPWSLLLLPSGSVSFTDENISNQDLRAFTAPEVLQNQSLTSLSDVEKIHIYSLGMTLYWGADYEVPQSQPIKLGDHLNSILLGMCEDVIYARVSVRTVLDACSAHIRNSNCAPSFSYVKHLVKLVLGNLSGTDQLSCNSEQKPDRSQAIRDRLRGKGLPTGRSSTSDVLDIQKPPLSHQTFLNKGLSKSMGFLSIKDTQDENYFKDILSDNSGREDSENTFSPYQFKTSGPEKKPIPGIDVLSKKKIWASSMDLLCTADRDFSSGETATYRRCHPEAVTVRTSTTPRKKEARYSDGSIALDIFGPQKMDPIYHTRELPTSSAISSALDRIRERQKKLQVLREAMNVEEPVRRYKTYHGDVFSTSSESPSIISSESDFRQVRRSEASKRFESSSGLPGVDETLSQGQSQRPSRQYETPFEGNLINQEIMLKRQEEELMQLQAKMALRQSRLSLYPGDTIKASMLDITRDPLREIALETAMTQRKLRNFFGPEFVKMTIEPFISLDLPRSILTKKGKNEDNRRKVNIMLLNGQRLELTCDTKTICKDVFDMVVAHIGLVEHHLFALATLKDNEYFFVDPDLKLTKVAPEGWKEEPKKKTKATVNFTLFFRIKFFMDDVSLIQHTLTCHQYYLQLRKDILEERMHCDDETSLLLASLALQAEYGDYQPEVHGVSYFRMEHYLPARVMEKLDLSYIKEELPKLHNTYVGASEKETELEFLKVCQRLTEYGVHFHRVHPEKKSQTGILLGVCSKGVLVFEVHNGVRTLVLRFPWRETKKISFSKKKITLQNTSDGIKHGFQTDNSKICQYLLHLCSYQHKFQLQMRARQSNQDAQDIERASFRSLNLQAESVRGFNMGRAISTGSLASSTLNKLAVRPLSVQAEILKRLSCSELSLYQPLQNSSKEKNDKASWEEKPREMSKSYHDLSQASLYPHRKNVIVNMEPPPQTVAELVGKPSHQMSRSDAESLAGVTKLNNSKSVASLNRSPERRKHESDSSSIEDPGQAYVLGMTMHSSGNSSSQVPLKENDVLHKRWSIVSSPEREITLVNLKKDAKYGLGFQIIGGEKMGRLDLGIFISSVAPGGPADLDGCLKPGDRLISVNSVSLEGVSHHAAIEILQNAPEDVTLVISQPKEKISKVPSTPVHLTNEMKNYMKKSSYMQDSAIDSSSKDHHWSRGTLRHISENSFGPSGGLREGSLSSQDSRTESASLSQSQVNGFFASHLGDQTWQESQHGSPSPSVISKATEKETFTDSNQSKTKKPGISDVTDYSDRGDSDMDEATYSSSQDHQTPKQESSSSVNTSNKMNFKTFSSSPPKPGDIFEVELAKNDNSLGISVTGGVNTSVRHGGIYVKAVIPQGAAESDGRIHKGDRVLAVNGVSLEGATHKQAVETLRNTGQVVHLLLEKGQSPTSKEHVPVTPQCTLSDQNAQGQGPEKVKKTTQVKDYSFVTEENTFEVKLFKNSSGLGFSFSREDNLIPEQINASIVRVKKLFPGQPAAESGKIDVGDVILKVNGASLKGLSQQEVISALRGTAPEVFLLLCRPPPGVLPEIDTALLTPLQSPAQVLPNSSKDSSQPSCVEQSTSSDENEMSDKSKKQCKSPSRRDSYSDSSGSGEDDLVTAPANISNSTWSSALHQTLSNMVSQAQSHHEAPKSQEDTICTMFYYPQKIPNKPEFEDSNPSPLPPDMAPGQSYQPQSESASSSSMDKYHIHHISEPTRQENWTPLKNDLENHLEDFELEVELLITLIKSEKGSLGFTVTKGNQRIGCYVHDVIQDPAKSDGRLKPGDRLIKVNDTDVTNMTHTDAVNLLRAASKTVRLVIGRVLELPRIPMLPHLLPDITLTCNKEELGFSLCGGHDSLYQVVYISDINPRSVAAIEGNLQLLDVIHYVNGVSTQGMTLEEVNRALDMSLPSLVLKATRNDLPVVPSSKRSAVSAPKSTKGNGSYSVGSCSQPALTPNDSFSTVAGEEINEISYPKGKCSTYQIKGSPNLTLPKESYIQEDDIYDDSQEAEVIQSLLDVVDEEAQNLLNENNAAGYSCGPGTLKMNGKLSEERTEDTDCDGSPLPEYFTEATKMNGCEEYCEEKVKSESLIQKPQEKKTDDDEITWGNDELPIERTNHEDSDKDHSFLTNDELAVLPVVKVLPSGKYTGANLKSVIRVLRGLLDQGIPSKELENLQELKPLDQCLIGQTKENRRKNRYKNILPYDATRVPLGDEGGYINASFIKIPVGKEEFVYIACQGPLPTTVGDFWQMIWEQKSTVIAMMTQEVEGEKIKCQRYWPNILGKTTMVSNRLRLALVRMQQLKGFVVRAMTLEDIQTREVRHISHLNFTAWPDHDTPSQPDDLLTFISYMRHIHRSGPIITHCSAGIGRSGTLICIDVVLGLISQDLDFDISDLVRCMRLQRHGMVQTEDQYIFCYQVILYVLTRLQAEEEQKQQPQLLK

`O=C(O)c1ccccc1-c1c2cc(F)c(=O)c([As]3SCCS3)c-2oc2c([As]3SCCS3)c(O)c(F)cc12` was tested, and the inhibition [1] was “Active”.

In the case of `CC1(C)C(/C=C/C=C/C=C2/N(CCCCS(=O)(=O)O)c3ccc([As]4SCCS4)cc3C2(C)C)=[N+](CCCCS(=O)(=O)O)c2ccc([As]3SCCS3)cc21`, the inhibition [2] is reported as “Active”, the inhibition [3] is reported as “inactive” and the inhibition [4] is reported as “inactive”. For the same compound, the inhibition [5] was “Active”, the inhibition [6] was “Active” and the inhibition [7] was “Active”. For the same compound, the inhibition [8] was “Active”.

With `CCCCNC(=O)c1ccc(-c2c3ccc(=O)c([As]4SCCS4)c-3oc3c([As]4SCCS4)c(O)ccc23)c(C(=O)O)c1` the inhibition [1] was “Active”.

For `O=c1ccc2nc3ccc(O)c([As]4SCCS4)c3oc-2c1[As]1SCCS1`, the inhibition [9] was “Dose-dependent effect”, the inhibition [2] was “Active” and the inhibition [10] was 50%. For the same compound, the inhibition [5] was “Active”, the inhibition [6] was “Active” and the inhibition [7] was “Active”. For the same compound, the inhibition [11] was “inactive” and the inhibition [8] was “Active”.

For `O=C(O)c1ccc(-c2c3ccc(=O)c([As]4SCCS4)c-3oc3c([As]4SCCS4)c(O)ccc23)c(C(=O)O)c1`, the inhibition [1] was “Active”.

In the case of `O=C(O)c1ccccc1-c1c2cc(Cl)c(=O)c([As]3SCCS3)c-2oc2c([As]3SCCS3)c(O)c(Cl)cc12`, the inhibition [1] is reported as “Active”.

With `CCc1cc2c(-c3ccccc3C(=O)O)c3cc(CC)c(=O)c([As]4SCCS4)c-3oc2c([As]2SCCS2)c1O` the inhibition [1] was “Active”.

`O=C(O)c1c(F)c(F)c(F)c(F)c1-c1c2ccc(=O)c([As]3SCCS3)c-2oc2c([As]3SCCS3)c(O)ccc12` was tested, and the inhibition [1] was “Active”.
